Test results: patent US11345702B1 (Myoforte Therapeutics, Inc., priority 2020, dated 2022)
pIC50: −log10 of the molar value.

The compounds below were run against 15-PGDH/HPGD (Homo sapiens (Human), UniProt P15428) (assay: hPGDH inhibitor screening biochemical assay). Conditions: read-out: hPGDH: Average IC50.
Protocol: A hydroxyprostaglandin dehydrogenase inhibition screening biochemical assay can be performed to assess the synthesized inhibitors provided herein. Provided herein is an exemplary biochemical assay for hPGDH inhibitor screening.
The in vitro biochemical assay can be performed in white, 384 plates in total 20 μl reaction volume consisting of 10 nM of 15-PGDH/HPGD (R&D System #5660-DH), 15 μM Prostaglandin E2 (Sigma, Cat #P5640-10MG) and 0.25 mM (3-Nicotinamide adenine dinucleotide sodium salt (Sigma, Cat #N0632-5G) made in reaction buffer (50 mM Tris-HCl, pH 7.5, 0.01% Tween 20) at 10-point dose response curve for test/tool compounds. Briefly, 5 μl (4×) of compounds solution and 5 μl (final concentration, 10 nM) of enzyme solution is added to white 384 well plates and incubated for 10 mins at 37° C. 5 μl (4×) of Prostaglandin E2 and 5 μl (4×) of β-Nicotinamide adenine dinucleotide sodium salt is added to the wells and incubated for 10 mins at room temperature. Fluorescence is recorded at ex/em=340 nm/485 nm. The percentage (%) inhibition of enzyme activity was determined relative to positive control (1% DMSO) and IC50 was calculated using GraphPad prism software (four parameter-variable slope equation).

Chain of 15-PGDH/HPGD (P15428 whole entry): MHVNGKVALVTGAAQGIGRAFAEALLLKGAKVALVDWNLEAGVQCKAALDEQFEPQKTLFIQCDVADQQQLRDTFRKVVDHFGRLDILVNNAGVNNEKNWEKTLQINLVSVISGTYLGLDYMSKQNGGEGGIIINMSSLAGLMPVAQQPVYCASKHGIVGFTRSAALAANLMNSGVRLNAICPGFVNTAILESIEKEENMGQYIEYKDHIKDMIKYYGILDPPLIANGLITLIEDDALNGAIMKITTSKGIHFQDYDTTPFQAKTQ

| SMILES | pIC50 |
| --- | --- |
| O=C(Nc1ccno1)c1ccc(-n2ccc3cc(C(=O)N4CCC(F)(F)CC4)cnc32)cn1 | > 7.00 |
| N#Cc1ccc(-n2ccc3cc(C(=O)N4CC[C@H](F)C4)cnc32)cc1 (single isomer, unassigned) [MF-DH-574] | > 7.00 |
| N#Cc1ccc(-n2ccc3cc(C(=O)N4CC[C@@H](F)C4)cnc32)cc1 (single isomer, unassigned) [MF-DH-575] | > 7.00 |
| COc1ccc(-n2c(N)nc3cc(C(=O)N4CCC(F)CC4)cnc32)cc1 [MF-DH-115] | 6.00 to 7.00 |
| COc1ccc(-n2c(NC(C)=O)nc3cc(C(=O)N4CCC(F)CC4)cnc32)cc1 [MF-DH-116] | ≤ 6.00 |
| COc1ccc(-n2c(CCNC(C)=O)nc3cc(C(=O)N4CCC(F)CC4)cnc32)cc1 [MF-DH-117] | ≤ 6.00 |
| COc1cc(C(=O)N2CCC(F)CC2)ccc1COc1ccccc1Cl [MF-DH-118] | 6.00 to 7.00 |
| O=C(c1ccc(COc2ccccc2Cl)cn1)N1CCC(F)CC1 [MF-DH-121, (5-((2-chlorophenoxy)methyl)pyridin-2-yl)(4-fluoropiperidin-1-yl)methanone] | ≤ 6.00 |
| O=C(c1cnc2c(ccn2-c2cnccn2)c1)N1CCC(F)CC1 [MF-DH-123] | > 7.00 |
| COc1ccc(Cn2cnc(-n3ccc4cc(C(=O)N5CCCCC5)cnc43)c2)cc1 [MF-DH-128] | 6.00 to 7.00 |
| COc1ccc(Cn2cc(-n3ccc4cc(C(=O)N5CCCCC5)cnc43)cn2)cc1 [MF-DH-129] | 6.00 to 7.00 |
| O=C(c1cnc2c(ccn2-c2ccncn2)c1)N1CCC(F)CC1 [MF-DH-131] | > 7.00 |
| O=C(c1cnc2c(c1)c(Cl)cn2-c1ccncn1)N1CCC(F)CC1 [MF-DH-132] | 6.00 to 7.00 |
| O=C(c1cnc2c(ccn2-c2ccc(O)nc2)c1)N1CCC(F)CC1 [MF-DH-133] | > 7.00 |
| O=C(c1cnc2c(ccn2-c2cccnc2)c1)N1CCC(F)CC1 [MF-DH-134] | > 7.00 |
| O=C(c1cnc2c(c1)c(Cl)cn2-c1cccnc1)N1CCC(F)CC1 [MF-DH-135] | > 7.00 |

| SMILES | pIC50 |
| --- | --- |
| COc1ccc(-n2cnc3cc(C(=O)N4CC(F)C4)cnc32)cc1 [MF-DH-138] | 6.00 to 7.00 |
| Cn1cc(-n2ccc3cc(C(=O)N4CCC(F)CC4)cnc32)cn1 [MF-DH-139] | > 7.00 |
| Cn1cc(-n2cc(Cl)c3cc(C(=O)N4CCC(F)CC4)cnc32)cn1 [MF-DH-140] | > 7.00 |
| COc1ccc(-n2cnc3cc(C(=O)N4CCC(F)CC4)ccc32)nc1 [MF-DH-141] | > 7.00 |
| O=C(c1cnc2c(c1)c(Cl)cn2-c1cncnc1)N1CCC(F)CC1 [MF-DH-145] | > 7.00 |
| O=C(c1cnc2c(ccn2-c2cnccn2)c1Cl)N1CCC(F)CC1 [MF-DH-146] | > 7.00 |
| O=C(c1cnc2c(c(Cl)cn2-c2cnccn2)c1Cl)N1CCC(F)CC1 [MF-DH-147] | > 7.00 |
| Cc1nc2c(ccn2-c2cnccn2)cc1C(=O)N1CCC(F)CC1 [MF-DH-148] | ≤ 6.00 |
| Cc1nc2c(cc1C(=O)N1CCC(F)CC1)c(Cl)cn2-c1cnccn1 [MF-DH-149] | ≤ 6.00 |
| Cc1c(C(=O)N2CCC(F)CC2)cnc2c1ccn2-c1cnccn1 [MF-DH-150, (4-fluoropiperidin-1-yl)(4-methyl-1-(pyrazin-2-yl)-1H-pyrrolo[2,3-b]pyridin-5-yl)methanone] | > 7.00 |
| COc1ccc(-n2ccc3cc(C(=O)N4CCC(F)CC4)cnc32)cn1 [MF-DH-157] | > 7.00 |
| CC1(C)CCN(c2cnccn2)c2ccc(C(=O)N3CCC(F)CC3)cc21 [MF-DH-160, (4,4-dimethyl-1-(pyrazin-2-yl)-1,2,3,4-tetrahydroquinolin-6-yl)(4-fluoropiperidin-1-yl)methanone] | 6.00 to 7.00 |
| COc1ccc(-n2c(C)nc3cc(C(=O)N4CCC(F)CC4)cnc32)cc1 [MF-DH-176] | 6.00 to 7.00 |
| Cc1cn(-c2cncnc2)c2ccc(C(=O)N3CCC(F)CC3)cc12 [MF-DH-178, (4-fluoropiperidin-1-yl)(3-methyl-1-(pyrimidin-5-yl)-1H-indol-5-yl)methanone] | 6.00 to 7.00 |
| Cc1cn(-c2cnccn2)c2ccc(C(=O)N3CCC(F)CC3)cc12 [MF-DH-180, (4-fluoropiperidin-1-yl)(3-methyl-1-(pyrazin-2-yl)-1H-indol-5-yl)methanone] | 6.00 to 7.00 |
